According to patent US20210198277A1, “AMINE-SUBSTITUTED ARYL OR HETEROARYL COMPOUNDS” (Epizyme, Inc., priority 2016, published 2021):
Like-named read-outs stand apart in the source and are kept apart here.

What was measured:
human EHMT2 913-1193 = biological target: T1, human EHMT2 913-1193 (Homo sapiens, UniProt Q96KQ7); experiment: EHMT2 enzyme assay on histone peptide substrate (EHMT2 PEP); type: biochemical
T1 construct: recombinant purified human EHMT2 913-1193, Viva; purchased Viva
T1 sequence (Q96KQ7 913-1193): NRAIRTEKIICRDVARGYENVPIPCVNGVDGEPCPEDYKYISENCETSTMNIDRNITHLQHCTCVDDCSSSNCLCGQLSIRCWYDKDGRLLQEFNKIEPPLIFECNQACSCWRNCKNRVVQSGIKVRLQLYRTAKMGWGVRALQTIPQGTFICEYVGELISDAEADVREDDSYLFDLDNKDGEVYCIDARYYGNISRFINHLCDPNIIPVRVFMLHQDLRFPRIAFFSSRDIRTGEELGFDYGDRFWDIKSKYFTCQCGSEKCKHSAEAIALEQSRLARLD
Procedure, shortened: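 Radiometric methyltransferase read-out: ^3H-methyl transfer from ^3H-SAM onto biotinylated histone peptide, captured on streptavidin Flashplates after 60 min reaction at room temperature. Enzyme 0.031 nM, preincubated 30 min with inhibitor; buffer 20 mM Bicine pH 7.5 with 1 mM TCEP; top compound concentration 50 μM final, 2% DMSO.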

EHMT1 = biological target: T2, EHMT1 (Homo sapiens, UniProt Q9H9B1); experiment: EHMT1 enzyme assay on peptide substrate (EHMT1 PEP); type: biochemical
T2 sequence (Q9H9B1 1-1298): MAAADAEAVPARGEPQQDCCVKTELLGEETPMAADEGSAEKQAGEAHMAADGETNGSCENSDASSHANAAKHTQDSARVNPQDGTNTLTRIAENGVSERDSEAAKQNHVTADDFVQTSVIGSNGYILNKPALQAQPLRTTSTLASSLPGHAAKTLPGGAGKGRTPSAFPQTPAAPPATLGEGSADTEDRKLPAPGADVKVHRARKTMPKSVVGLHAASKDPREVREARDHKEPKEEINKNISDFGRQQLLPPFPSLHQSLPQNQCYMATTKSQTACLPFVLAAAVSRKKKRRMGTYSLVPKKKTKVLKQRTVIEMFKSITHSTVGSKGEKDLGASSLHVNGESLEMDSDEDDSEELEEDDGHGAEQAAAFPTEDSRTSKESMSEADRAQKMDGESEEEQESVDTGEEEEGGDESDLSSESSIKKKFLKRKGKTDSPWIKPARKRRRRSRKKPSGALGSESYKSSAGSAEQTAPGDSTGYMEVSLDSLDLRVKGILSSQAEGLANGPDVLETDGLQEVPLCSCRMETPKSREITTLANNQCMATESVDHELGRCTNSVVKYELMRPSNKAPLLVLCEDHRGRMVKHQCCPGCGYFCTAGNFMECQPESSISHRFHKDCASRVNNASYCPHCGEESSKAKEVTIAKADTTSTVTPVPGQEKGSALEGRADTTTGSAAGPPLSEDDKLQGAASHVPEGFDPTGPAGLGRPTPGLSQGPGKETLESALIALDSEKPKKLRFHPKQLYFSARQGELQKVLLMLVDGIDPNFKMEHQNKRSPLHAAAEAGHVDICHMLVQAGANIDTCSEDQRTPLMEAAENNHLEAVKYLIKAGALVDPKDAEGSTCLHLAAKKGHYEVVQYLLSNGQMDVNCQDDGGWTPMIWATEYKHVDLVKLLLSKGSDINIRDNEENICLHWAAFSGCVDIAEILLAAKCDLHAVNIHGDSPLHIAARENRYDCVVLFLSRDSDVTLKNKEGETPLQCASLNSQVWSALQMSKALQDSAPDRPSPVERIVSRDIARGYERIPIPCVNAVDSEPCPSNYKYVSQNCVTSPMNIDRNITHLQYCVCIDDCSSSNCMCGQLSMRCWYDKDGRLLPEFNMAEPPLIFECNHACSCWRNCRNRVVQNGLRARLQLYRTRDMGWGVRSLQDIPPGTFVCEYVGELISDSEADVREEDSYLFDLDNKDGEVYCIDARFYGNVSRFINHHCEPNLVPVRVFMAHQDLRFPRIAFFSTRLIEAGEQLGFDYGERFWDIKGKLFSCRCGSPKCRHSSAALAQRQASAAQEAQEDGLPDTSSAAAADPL

[1] = recombinant human EHMT2 913-1193, histone H3 1-15 peptide, balanced conditions, read-out: EHMT2 PEP (IC50 μM)
[2] = Table VII, read-out: EHMT2 PEP IC50
[3] = Table VII, read-out: EHMT1 PEP IC50

Structure (SMILES) | IC50 (human EHMT2 913-1193; [1]) [µM] | IC50 (EHMT1; read-out: EHMT1 PEP (IC50 μM)) [µM] | IC50 (human EHMT2 913-1193; [2]) [µM] | IC50 (EHMT1; [3]) [µM]
CNc1cc(C)nc(Nc2ccc(OC)c([C@H]3C[C@@H]3CN(C)C)c2)n1 [Compound 487] | 1 to 10 | 0.1 to 1 | – | –
CNc1cc(C)nc(Nc2cnc(OC)c(OC[C@@H]3CCN(C4CC4)C3)c2)n1 [Compound 512] | < 0.1 | < 0.1 | – | –
COc1cc2c(C3CCN(C)CC3)nc(NC3CCCC3)nc2cc1OCCCN1CCCC1 [Compound 529] | < 0.1 | < 0.1 | – | –
CNc1cc(C)nc(Nc2ccc(OC)c(OCC3CCCN(C4CC4)C3)c2)n1 (centres unmarked) [Compound 517a] | 0.1 to 1 | 0.1 to 1 | – | –
CNc1nc(C2CCNCC2)c2cc(OC)c(OCCCN3CCCC3)cc2n1 [Compound 520] | < 0.1 | < 0.1 | – | –
COc1cnc(Nc2nc(C)cc3[nH]ccc23)cc1OCC1CCN(C2CC2)C1 (centres unmarked) [Compound 494] | < 0.1 | < 0.1 | – | –
CNc1nc(C2=CCOCC2)c2cc(OC)c(OCCCN3CCCC3)cc2n1 [Compound 522] | 1 to 10 | 1 to 10 | – | –
CNc1nc(C2CCN(C(C)=O)CC2)c2cc(OC)c(OCCCN3CCCC3)cc2n1 [Compound 519] | 0.1 to 1 | 1 to 10 | – | –
CNc1cc(C)nc(Nc2ccc(OC)c(OCCCN3CCCC3C)c2)n1 (centres unmarked) [Compound 504, N^2-(4-methoxy-3-(3-(2-methylpyrrolidin-1-yl)propoxy)phenyl)-N^4,6-dimethylpyrimidine-2,4-diamine] | 0.1 to 1 | 0.1 to 1 | – | –
COc1ccc(Nc2nc(C)cc(NCC3CCOCC3)n2)cc1OCC1CCN(C2CC2)C1 (centres unmarked) [Compound 462, N^2-(3-((1-cyclopropylpyrrolidin-3-yl)methoxy)-4-methoxyphenyl)-6-methyl-N^4-((tetrahydro-2H-pyran-4-yl)methyl)pyrimidine-2,4-diamine] | < 0.1 | < 0.1 | – | –
CNc1cc(C)nc(Nc2ccc(OC)c(OC[C@H]3CCN(C4CC4)C3)c2)n1 (single isomer, unassigned) [Compound 482] | 0.1 to 1 | 0.1 to 1 | – | –
COc1cnc(Nc2cc(NCC3CCOCC3)cc(C)n2)cc1OCCCN1CCCC1 [Compound 464, N^2-(5-methoxy-4-(3-(pyrrolidin-1-yl)propoxy)pyridin-2-yl)-6-methyl-N^4-((tetrahydro-2H-pyran-4-yl)methyl)pyridine-2,4-diamine] | 0.1 to 1 | 0.1 to 1 | – | –
CNc1cc(Nc2cc(OCCCN3CC4CC4C3)c(OC)cn2)nc(C)c1F (centres unmarked) [Compound 509] | 0.1 to 1 | < 0.1 | – | –
CNc1cc(C)nc(Nc2ccc(OC)c(OCCCN3CCC4(CC4)C3)c2)n1 [Compound 498, N^2-(3-(3-(5-azaspiro[2.4]heptan-5-yl)propoxy)-4-methoxyphenyl)-N^4,6-dimethylpyrimidine-2,4-diamine] | 1 to 10 | 0.1 to 1 | – | –
CNc1cc(C2CCN(C)CC2)c2cc(OC)c(OCCCN3CCCC3)cc2n1 [Compound 535] | < 0.1 | < 0.1 | – | –
CNc1nc(C2CC(C)(C)NC(C)(C)C2)c2cc(OC)c(OCCCN3CCCC3)cc2n1 [Compound 534] | 1 to 10 | 1 to 10 | – | –
CCCCNc1nccc(NC)n1 [Compound 543, N^2-butyl-N^4-methylpyrimidine-2,4-diamine] | > 10 | > 10 | – | –

Structure (SMILES) | IC50 (human EHMT2 913-1193; [1]) [µM] | IC50 (EHMT1; read-out: EHMT1 PEP (IC50 μM)) [µM] | IC50 (human EHMT2 913-1193; [2]) [µM] | IC50 (EHMT1; [3]) [µM]
CNc1cc(C)nc(Nc2ccc(OC)c(OC[C@H](O)CN3CCCC3)c2)n1 [Compound 1045] | – | – | < 0.1 | < 0.1
CNc1cc(C)nc(Nc2ccc(OC)c(OC(C#N)CCN3CCCC3)c2)n1 (centres unmarked) [Compound 489] | 1 to 10 | 0.1 to 1 | – | –
COc1cnc(Nc2nc(C)cc3[nH]ncc23)cc1OCCCN1CCCC1 [Compound 460, N-(5-methoxy-4-(3-(pyrrolidin-1-yl)propoxy)pyridine-2-yl)-6-methyl-1H-pyrazolo[4,3-c]pyridine-4-amine] | < 0.1 | < 0.1 | – | –
CNc1nc(C2CCCCC2)c2cc(OC)c(OCCCN3CCCC3)cc2n1 [Compound 523, 4-cyclohexyl-6-methoxy-N-methyl-7-(3-(pyrrolidin-1-yl)propoxy)quinazolin-2-amine] | 1 to 10 | 1 to 10 | – | –
CNc1cc(Nc2cc(OC[C@@H]3CCN(C)C3)c(OC)cn2)nc(C)n1 [Compound 473] | 1 to 10 | 0.1 to 1 | – | –
CNc1cc(C)nc(Nc2ccc(OC)c(OC3CCN(C)CC3)c2)n1 [Compound 455] | > 10 | > 10 | – | –
COc1cnc(Nc2nc(C)cc3[nH]ccc23)cc1OC[C@H]1CCN(C2CC2)C1 [Compound 494a] | 0.1 to 1 | < 0.1 | – | –
CCN(C)C[C@@H](O)COc1cc(Nc2nc(C)cc(NC)n2)ccc1OC [Compound 1113] | – | – | 0.1 to 1 | < 0.1
CNc1cc(C)nc(Nc2cc(Cl)c(OC)c(OCCCN3CCCC3)c2)n1 [Compound 496] | 1 to 10 | 0.1 to 1 | – | –
CNc1cc(C)nc(Nc2ccc(OC)c(OC[C@H]3C[C@@H](N(C)C)C3)c2)n1 [Compound 468] | 1 to 10 | 0.1 to 1 | – | –
CNc1ccnc(Nc2ccc(OC)c(OC[C@@H](O)CN3CCC3)c2)n1 [Compound 1046] | – | – | 1 to 10 | 1 to 10
CNc1cc(C)nc(Nc2ccc(OC)c(OCCCN3CC(O)C3)c2)n1 [Compound 465, 1-(3-(2-methoxy-5-((4-methyl-6-(methylamino)pyrimidin-2-yl)amino)phenoxy)propyl)azetidin-3-ol] | < 0.1 | < 0.1 | – | –
COc1ccc(Nc2nc(C)cc3[nH]ccc23)cc1OCCCN1CCCC1 [Compound 486] | > 10 | > 10 | – | –
CNc1cc(C)nc(Nc2ccc(OC)c(OC[C@@H](O)CN3CCCC3)c2)n1 [Compound 1044] | – | – | 0.1 to 1 | 0.1 to 1
COc1cc2c(C3CCN(C)CC3)nc(N3CCC(F)(F)CC3)nc2cc1OCCCN1CCCC1 [Compound 528] | 0.1 to 1 | 0.1 to 1 | – | –
CNc1cc(C)nc(Nc2ccc(OC)c(OCCC3CN(C)C3)c2)n1 [Compound 508] | 1 to 10 | 1 to 10 | – | –
CNc1cc(C)nc(Nc2ccc(OC)c(OCCCN(C)C3CC3)c2)n1 [Compound 463, N^2-(3-(3-(cyclopropyl(methyl)amino)propoxy)-4-methoxyphenyl)-N^4,6-dimethylpyrimidine-2,4-diamine] | < 0.1 | < 0.1 | – | –
